Entries after “also recorded” stand apart in the source; their conditions may differ. Marks after values point to notes of the source that are not given here.

In data set [1] the target is α-glucosidase. Nature of the data set: In vitro α-glucosidase inhibition assay (pNPG substrate). It counts as biochemical. Particulars: for IC50: mean ± SD, n = 3; for Inhibitory Rate (%): mean ± SD (n = 3). The protocol:
The α-glucosidase inhibition assay was carried out on the basis of the method reported by Zhang et al., with minor modifications. […] […] To initiate the reaction, pNPG (40 μL) was added to the reaction mixture and incubated at 37 °C for 30 min. The reaction was terminated by adding 20 μL of Na2CO3, after which the absorbance was determined at 405 nm by a microplate reader (SpectraMax190, Micro-g Biotech, Guangzhou, China).

In data set [2] the test system is 3T3-L1 adipocytes. Nature of the data set: Cell viability (CellTiter 96 AQueous One Solution) after the glucose uptake experiment. Format: cell-based, murine. Particulars: compounds at 20 μM, compared to the control group. The procedure:
The murine 3T3-L1 preadipocytes were supplied by the American Type Culture Collection (ATCC, Manassas, VA, USA). The cells were cultured in high-glucose DMEM supplemented with 10% (v/v) newborn calf serum (NBCS), 1% (v/v) Pen-Strep solution (P/S) at 37 °C in a humidified atmosphere of 5% CO2, and then starved until the cells reached confluence (day 0). Two days later (day 2), the cells were cultured in DMEM supplemented with 10% (v/v) fetal bovine serum (FBS), 1% (v/v) P/S, 0.5 mM 3-isobutyl-1-methylxanthine (IBMX), 1 μM dexamethasone (DEX), 1 μM rosiglitazone (ROSI) and 100 nM insulin. Three days after (day 5) the induction, the culture medium was replaced with DMEM containing 10% (v/v) FBS, 1% (v/v) P/S, and 100 nM insulin for one day (day 6). […]
Cell viability was detected by using a CellTiter 96® AQueous One Solution Cell Proliferation Assay (Promega Corporation, Madison, WI, USA) according to the manufacturer’s instructions after the glucose uptake experiment. CellTiter 96® AQueous One Solution Cell Proliferation Assay reagent (20 µL/well) was added to the plate and incubated at 37 °C for 180 min before absorbance was measured at 490 nm, and the relative cell viability was calculated as follows:Relative cell viability (%) = A1/A2 × 100(2) where […].

Data set [3] deals with 3T3-L1 adipocytes. The data set is described as follows: Insulin-induced glucose uptake assay in 3T3-L1 adipocytes. It counts as cell-based, murine. The procedure: The murine 3T3-L1 preadipocytes were supplied by the American Type Culture Collection (ATCC, Manassas, VA, USA). The cells were cultured in high-glucose DMEM supplemented with 10% (v/v) newborn calf serum (NBCS), 1% (v/v) Pen-Strep solution (P/S) at 37 °C in a humidified atmosphere of 5% CO2, and then starved until the cells reached confluence (day 0). Two days later (day 2), the cells were cultured in DMEM supplemented with 10% (v/v) fetal bovine serum (FBS), 1% (v/v) P/S, 0.5 mM 3-isobutyl-1-methylxanthine (IBMX), 1 μM dexamethasone (DEX), 1 μM rosiglitazone (ROSI) and 100 nM insulin. Three days after (day 5) the induction, the culture medium was replaced with DMEM containing 10% (v/v) FBS, 1% (v/v) P/S, and 100 nM insulin for one day (day 6). Then the cells were completely differentiated into mature adipocytes (Figure 11).
The mature adipocytes were inoculated in a 96-well plate at 5 × 10^4 cells per well for 24 h. The 3T3-L1 adipocytes were divided into model groups (blank control), insulin group (250 ng/mL, positive control), and sample group (20 μM). […] The absorbance value was detected by a microplate reader at 505 nm. The glucose uptake rate was calculated as follows:Glucose uptake rate (%) = [1 − A2/A1] × 100(1) where A1 is the absorbance of the mixed-glucose, DMEM-supplemented control, and A2 is the absorbance of the blank, insulin, or sample group.

Data set [4] deals with α-glucosidase. Nature of the data set: Kinetics of α-glucosidase inhibition (Lineweaver–Burk and Dixon plots). It counts as biochemical. Particulars: for Ki: Dixon plot, 1/v versus [I], read-out: Ki (inhibitor binding to α-glucosidase); for Inhibition type: Lineweaver–Burk and Dixon plots; for Change of Km and Vmax with increased concentration of inhibitor: Lineweaver–Burk plot. The procedure:
(§1) The kinetic analysis of compounds 3, 9, and 13 were measured using the reaction conditions in Section 3.6. Typically, three different concentrations of each compound around the IC50 values were chosen. Under each concentration, α-glucosidase activity was assayed by varying the concentration of pNPG as a substrate. […] Ki and Ki’ values were determined from 1/v versus [I] (Dixon plot) and S/v versus [I] plots, respectively.

For data set [5], the target named is α-glucosidase−pNPG complex. The data set is described as follows: Kinetics of α-glucosidase inhibition, S/v versus [I] plot (Ki’). It counts as biochemical. The protocol: as §1
Setting [6] is: percent inhibition at a concentration of 50 μM.

As usually defined, the IC50 is the midpoint of a concentration-inhibition curve. Low values mean greater potency, high ones weaker potency. In data set [1], `COC(=O)C1OC(OC2CCC3(C)C(CCC4(C)C3CC=C3C5CC(C)(C)CCC5(C(=O)OC5OC(CO)C(O)C(O)C5O)CCC34C)C2(C)C)C(O)C(OC2OCC(O)C(O)C2O)C1O` (centres unmarked) [Compound 8, momordin IIc 6’-methyl ester] displayed an IC50 greater than 50 µM. For the same compound, the “Inhibitory Rate (%)” value in data set [1] (setting [6]) is reported as 57.02 ± 36.3 ^e %.

A word on the Ki: it is the dissociation constant of the complex between target and ligand, obtained from inhibition or displacement. Take `CC1(C)CC2C3=CCC4[C@@]5(C)CC[C@H](O)C(C)(C)C5CC[C@@]4(C)[C@]3(C)CC[C@@]2(C(=O)O)[C@H](O)C1` (some centres unmarked) [Compound 13]: the “Cell viability / cytotoxicity” value in data set [2] is reported as “without inhibitory effects on cell viability”. Besides, the midpoint of inhibition in data set [1], the IC50, lay at 17 ± 2.7 µM. Also, the “Inhibitory Rate (%)” value in data set [1] (setting [6]) is on record as 69.91 ± 0.59 ^c %. The “Effect on glucose uptake” value in data set [3] (compound at 20 μM, 24 h, p < 0.001 versus model group) is reported as “potent effect; also recorded: strong effect; also recorded: significant promotion”. Besides, in data set [4], the Ki is 13.6 ± 0.42 µM; the Inhibition type entry is given as “mixed-type”; the “Change of Km and Vmax with increased concentration of inhibitor” value is “both the Km and Vmax values decreased”. Further, the “Ki’ (inhibitor binding to the α-glucosidase−pNPG complex)” value in data set [5] is recorded as 8.82 ± 0.06 μM.

With `CC1(C)CCC2(C(=O)OC3OC(CO)C(O)C(O)C3O)CCC3(C)C(=CCC4C5(C)CCC(O)C(C)(C)C5CCC43C)C2C1` [Compound 12, oleanolic acid 28-O-β-D-glucopyranosyl ester], the “Inhibitory Rate (%)” value in data set [1] (setting [6]) is on record as 41.48 ± 1.66 ^g %.

For the compound `CCOC(=O)C1OC(OC2CCC3(C)C(CCC4(C)C3CC=C3C5CC(C)(C)CCC5(C(=O)O)CCC34C)C2(C)C)C(O)C(OC2OCC(O)C(O)C2O)C1O` (centres unmarked) [Compound 6, momordin Ic ethyl ester], the IC50 in data set [1] is greater than 50 µM. The “Inhibitory Rate (%)” value in data set [1] (setting [6]) is 35.00 ± 0.40 ^h %.

Consider `C[C@H]1O[C@H](O[C@H]2[C@H](O)[C@@H](O)[C@@H](O[C@H]3[C@H](O)[C@@H](O)C(O)O[C@@H]3CO)O[C@@H]2CO)[C@H](O)[C@@H](O)[C@@H]1N[C@H]1C=C(CO)[C@@H](O)[C@H](O)[C@H]1O` (some centres unmarked) [Acarbose, acarbose, reference compound], for which the “Inhibitory Rate (%)” value in data set [1] (percent inhibition at a concentration of 0.012 μM) is listed as 87.04 ± 0.29 ^a %.

Take `CC1(C)CC[C@]2(C(=O)O)CC[C@]3(C)C(=CC[C@@H]4[C@@]5(C)CC[C@H](O)[C@@](C)(C(=O)O)[C@@H]5CC[C@]43C)[C@@H]2C1` [Compound 11, gypsogenic acid]: in data set [1], the IC50 was greater than 50 µM. In addition, the “Inhibitory Rate (%)” value in data set [1] (setting [6]) is recorded as 53.98 ± 1.65 ^e %.

With `COC(=O)C1OC(OC2CCC3(C)C(CCC4(C)C3CC=C3C5CC(C)(C)CCC5(C(=O)O)CCC34C)C2(C)C(=O)O)C(O)C(OC2OCC(O)C(O)C2O)C1O` [Compound 2, 3(β)-3-O-β-D-xylopyranosly(1→3)-β-D-glucopyranosiduronic acid 6-methyl ester-12-en-23,28-dioic acid], the IC50 in data set [1] was greater than 50 µM. In addition, the “Inhibitory Rate (%)” value in data set [1] (setting [6]) was 14.05 ± 4.90 ^j %.

Regarding `CC1(C)CCC2(C(=O)O)CCC3(C)C(=CCC4C5(C)CCC(OC6OC(C(=O)O)C(O)C(OC7OCC(O)C(O)C7O)C6O)C(C)(C(=O)O)C5CCC43C)C2C1` [Compound 1, 3(β)-3-O-β-D-xylopyranosly(1→3)-β-D-glucopyranosiduronic acid-12-en-23,28-dioic acid], in data set [1], the IC50 was greater than 50 µM. Besides, the “Inhibitory Rate (%)” value in data set [1] (setting [6]) is reported as 13.71 ± 0.54 ^j %.

In data set [1], `CC1(C)CCC2(C(=O)OC3OC(CO)C(O)C(O)C3O)CCC3(C)C(=CCC4C5(C)CCC(OC6OC(C(=O)O)C(O)C(OC7OCC(O)C(O)C7O)C6OC6OC(CO)C(O)C(O)C6O)C(C)(C)C5CCC43C)C2C1` [Compound 9, 2’-O-β-D-glucopyranosyl momordin IIc] had an IC50 of 4.29 ± 0.52 µM. Further, in data set [1] (setting [6]), the “Inhibitory Rate (%)” value is 74.41 ± 1.02 ^b %. Moreover, in data set [4], the Ki turned out to be 48.88 ± 0.07 µM; the Inhibition type result is on record as “mixed-type”; the “Change of Km and Vmax with increased concentration of inhibitor” value was “both the Km and Vmax values decreased”. Besides, the “Ki’ (inhibitor binding to the α-glucosidase−pNPG complex)” value in data set [5] was 19.52 ± 0.26 μM.

As for insulin, the “Effect on glucose uptake” value in data set [3] (insulin at 250 ng/mL (positive control), p < 0.001 versus control group) was “significantly promote”.

For the compound `CC1(C)CC[C@]2(C(=O)O)CC[C@]3(C)C(=CC[C@@H]4[C@@]5(C)CC[C@H](O[C@@H]6O[C@H](C(=O)O)[C@@H](O)[C@H](O[C@@H]7OC[C@@H](O)[C@H](O)[C@H]7O)[C@H]6O)C(C)(C)[C@@H]5CC[C@]43C)[C@@H]2C1` [Compound 4, momordin Ic], in data set [1], the IC50 is greater than 50 µM. The “Inhibitory Rate (%)” value in data set [1] (setting [6]) was 26.28 ± 1.01 ^i %.

As for `COC(=O)C1OC(OC2CCC3(C)C(CCC4(C)C3CC=C3C5CC(C)(C)CCC5(C(=O)O)CCC34C)C2(C)C)C(O)C(OC2OCC(O)C(O)C2O)C1O` (centres unmarked) [Compound 5, momordin Ic 6’-methyl ester], the IC50 in data set [1] was greater than 50 µM. Besides, in data set [1] (setting [6]), the “Inhibitory Rate (%)” value is reported as 29.62 ± 2.26 ^i %.

Turning to `CC1(C)CCC2(C(=O)OC3OC(CO)C(O)C(O)C3O)CCC3(C)C(=CCC4C5(C)CC(O)C(O)C(C)(C)C5CCC43C)C2C1` [Compound 3, 2β,3β-dihydroxyolean-12-en-28-oic acid 28-O-β-D-glucopyranoside], the IC50 in data set [1] was found to be 23.5 ± 3.37 µM. In data set [1] (setting [6]), the “Inhibitory Rate (%)” value is recorded as 59.79 ± 1.04 ^d %. Moreover, in data set [4], the Ki was 56.9 ± 1.23 µM; the Inhibition type entry was “mixed-type”; the “Change of Km and Vmax with increased concentration of inhibitor” value is “Vmax values decreased and the Km values increased”. In data set [5], the “Ki’ (inhibitor binding to the α-glucosidase−pNPG complex)” value is 47.89 ± 1.37 μM.

`CC1(C)C=C2C3CCC4[C@@]5(C)CC[C@H](O[C@@H]6O[C@H](CO)[C@@H](O)[C@H](O)[C@H]6O)C(C)(C)C5CC[C@@]4(C)[C@]3(C)CC[C@@]2(C(=O)O)CC1` (stereo partly drawn) [Compound 14, (3β)-3-(β-D-glucopyranosyloxy)olean-18-en-28-oic acid] yielded an IC50 in data set [1] greater than 50 µM. The “Inhibitory Rate (%)” value in data set [1] (setting [6]) was 17.49 ± 4.45 ^j %.

The compound `CC1(C)CC[C@]2(C(=O)O[C@@H]3O[C@H](CO)[C@@H](O)[C@H](O)[C@H]3O)CC[C@]3(C)C(=CC[C@@H]4[C@@]5(C)CC[C@H](O[C@@H]6O[C@H](C(=O)O)[C@@H](O)[C@H](O[C@@H]7OC[C@@H](O)[C@H](O)[C@H]7O)[C@H]6O)C(C)(C)[C@@H]5CC[C@]43C)[C@@H]2C1` [Compound 7, momordin IIc] yielded an IC50 in data set [1] greater than 50 µM. Moreover, the “Inhibitory Rate (%)” value in data set [1] (setting [6]) was 52.71 ± 0.85 ^f %.

(Values after publication PMC9916857, “Triterpenoids from Kochiae Fructus: Glucose Uptake in 3T3-L1 Adipocytes and α-Glucosidase Inhibition, In Silico Molecular Docking” (International Journal of Molecular Sciences, 2023).)
